The subject of assay [1] is HCT-116 human colorectal carcinoma cells. As to the kind of experiment: Cell-proliferation assay using Alamar Blue dye.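 Note: cells exposed to compound for about 4 days, then Alamar Blue added and dye fluorescence read after about 4 h, compared with medium-only control wells.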 Format: cell-based. Particulars: Homo sapiens. (Alamar Blue is a resazurin reagent that responds to reducing activity.)
Assay [2] deals with recombinant human PIM1 (Homo sapiens (Human), UniProt P11309). Nature of the assay: PIM-1 kinase activity in cell-free in vitro assay. The class given is biochemical. Particulars: cell-free assay; for inhibition at 0.5 µM / PIM-1: % inh 500 nM: 500 nM compound; for inhibition at 0.5 µM: read-out: PIM-1: % inh 500 nM.
Assay [3] has as its system Jurkat. Nature of the assay: Cell proliferation modulatory activity, Jurkat. Format: cell-based.
Setting [4] is: HCT-116, read-out: HCT-116 (uM), cell proliferation modulatory activity, HCT-116, second HCT-116 column (c8).
The mark [5] stands for this setting: HCT-116, HCT-116, second HCT-116 column (c8), read-out: HCT-116 (uM), cell proliferation modulatory activity.

Where two headings read alike, the source gives them in different places.

Sequence of recombinant human PIM1 (P11309 whole entry): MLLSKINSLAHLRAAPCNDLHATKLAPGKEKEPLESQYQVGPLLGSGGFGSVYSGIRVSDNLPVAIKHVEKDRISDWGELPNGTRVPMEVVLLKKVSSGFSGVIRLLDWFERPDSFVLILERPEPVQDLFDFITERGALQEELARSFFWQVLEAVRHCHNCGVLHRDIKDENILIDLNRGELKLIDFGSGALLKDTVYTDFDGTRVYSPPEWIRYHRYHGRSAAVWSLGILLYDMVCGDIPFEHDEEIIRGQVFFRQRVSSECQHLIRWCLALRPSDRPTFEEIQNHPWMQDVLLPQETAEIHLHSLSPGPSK

As for `Nc1ncc2c(n1)c(Nc1cccc(C(F)(F)F)c1)nc1cc(C(=O)O)ccc12`, the IC50 in assay [1] (setting [4]) is above 10 µM; in assay [2], 0.443 µM; in assay [3] (Homo sapiens) it was 2.66 µM. The inhibition at 0.5 µM in assay [2] came to 74.3%.
`C#Cc1cccc(Nc2nc3cc(C(=O)N4CCOCC4)ccc3c3cncnc23)c1`: the IC50 in assay [1] (setting [5]) was above 10 µM; in assay [3] (Homo sapiens), above 30 µM. In addition, the inhibition at 0.5 µM in assay [2] is -17.6%.
In the case of `CSc1ncc2c(n1)c(N(C)c1ccccc1)nc1cc(C(=O)O)ccc12`, the IC50 in assay [1] (setting [5]) is above 10 µM; in assay [2] it was 1.09 µM; in assay [3] (Homo sapiens), above 30 µM. For the same molecule, in assay [2], the inhibition at 0.5 µM was found to be 48.4%.
As for `C#Cc1cccc(Nc2nc3cc(C(=O)N(C)c4ccccc4)ccc3c3cncnc23)c1`, the results for the IC50 in assay [1] (setting [5]) and in assay [3] (Homo sapiens) were above 10 µM and 18.8 µM, respectively. Moreover, the inhibition at 0.5 µM in assay [2] is -11.2%.
Turning to `O=C(O)c1ccc2c(c1)nc(NC1CC1)c1nc(SCc3ccccc3Cl)ncc12` [drawing 1614], the IC50 is above 10 µM in assay [1] (setting [5]) and 29.3 µM in assay [3] (Homo sapiens). Further, the inhibition at 0.5 µM in assay [2] stood at 7.49%.
Turning to `CCOc1ccc(Nc2ncc3c(n2)c(NC2CC2)nc2cc(C(=O)O)ccc23)cc1`, the IC50 is above 10 µM in assay [1] (setting [5]) and 9.26 µM in assay [3] (Homo sapiens). Moreover, in assay [2], the inhibition at 0.5 µM was 45.9%.
For `C#Cc1cccc(Nc2nc3cc(C(=O)NC)ccc3c3cncnc23)c1` the same measures were 7.17 µM, 1.95 µM and -28.3%.
For `C#Cc1cccc(Nc2nc3cc(C(=O)NCc4ccc(C#N)cc4)ccc3c3cncnc23)c1` the same measures were above 10 µM, 9.09 µM and -14.6%.
For `CC(=O)Nc1ccc2c(c1)nc(Nc1cccc(C(F)(F)F)c1)c1nc(NC3CC3)ncc12` the same measures were above 10 µM, 1.22 µM and -39.8%.
Take `CN(C)c1ncc2c(n1)c(NC1CC1)nc1cc(C(=O)O)ccc12`: the IC50 in assay [1] (setting [5]) was above 10 µM; in assay [3] (Homo sapiens), above 50 µM. Further, the inhibition at 0.5 µM in assay [2] is -38.5%.
For `CC(=O)Nc1cccc(Nc2ncc3c(n2)c(NC2CC2)nc2cc(C(=O)O)ccc23)c1` the same measures were above 10 µM, above 62.5 µM and 32%.
Regarding `C#Cc1cccc(Nc2nc3cc(C(=O)O)ccc3c3cnc(NC)nc23)c1`, the IC50 in assay [1] (setting [4]) came out at 4.69 µM; in assay [2], 0.661 µM; in assay [3] (Homo sapiens) it was 1.29 µM. Moreover, in assay [2], the inhibition at 0.5 µM is 68.2%.
`O=C(O)c1ccc2c(c1)nc(N1CCC(c3ccccc3)C1)c1ccncc12` (stereo not drawn): the IC50 in assay [1] (setting [5]) was above 10 µM; in assay [3] (Homo sapiens), above 30 µM. Moreover, the inhibition at 0.5 µM in assay [2] is 1.04%.
As for `Cc1ccc(C(N)=O)cc1Nc1nc2cc(C(=O)O)ccc2c2cnccc12`, the values for the IC50 in assay [1] (setting [5]) and in assay [3] (Homo sapiens) were above 10 µM and above 30 µM, respectively. Moreover, in assay [2], the inhibition at 0.5 µM turned out to be 9.95%.
Turning to `O=C(O)c1ccc2c(c1)nc(NC1CC1)c1nc(NC3CC3)ncc12` [drawing 1616], the IC50 was above 10 µM in assay [1] (setting [4]) and 3.45 µM in assay [3] (Homo sapiens). In addition, the inhibition at 0.5 µM in assay [2] was 27.1%.
Turning to `O=C(O)c1ccc2c(c1)nc(Nc1ccc(Oc3ccccc3)cc1)c1ccncc12`, the results for the IC50 in assay [1] (setting [5]), in assay [2] and in assay [3] (Homo sapiens) were above 10 µM, above 1.1 µM and 22.9 µM, respectively. The inhibition at 0.5 µM in assay [2] was determined as 57.2%.
On to `C#Cc1cccc(Nc2nc3cc(C(=O)N(C)CCN(C)C)ccc3c3cncnc23)c1`, for which the IC50 in assay [1] (setting [5]) stood at 4.39 µM; in assay [3] (Homo sapiens), 4.37 µM. In addition, the inhibition at 0.5 µM in assay [2] is -15.5%.
Take `O=C(O)c1ccc2c(c1)nc(NC1CC1)c1nc(Nc3cc(F)cc(F)c3)ncc12`: the IC50 in assay [1] (setting [5]) is above 10 µM; in assay [3] (Homo sapiens) it was 35.4 µM. The inhibition at 0.5 µM in assay [2] came out at 46.3%.
Take `O=C(O)c1ccc2c(c1)nc(NC1CC1)c1nc(Nc3cccc4ccccc34)ncc12`: the IC50 in assay [1] (setting [5]) was above 10 µM; in assay [3] (Homo sapiens), 23.3 µM. In assay [2], the inhibition at 0.5 µM was 22.9%.
For `Cc1c(-c2cc(Nc3nc4cc(C(=O)O)ccc4c4cnccc34)n(C)n2)sc2ccc(Cl)cc12` the same measures were above 10 µM, 19.6 µM and 4.53%.
Consider `Cc1ccc(Nc2nc3cc(C(=O)O)ccc3c3cnccc23)nc1`, for which the IC50 was above 10 µM in assay [1] (setting [5]), above 1.1 µM in assay [2] and 1.26 µM in assay [3] (Homo sapiens). In assay [2], the inhibition at 0.5 µM is 48.3%.
As to `C#Cc1cccc(Nc2nc3cc(C(=O)NC4CC4)ccc3c3cncnc23)c1`, the figures for the IC50 in assay [1] (setting [5]) and in assay [3] (Homo sapiens) were 3.49 µM and 1.54 µM, respectively. Also, the inhibition at 0.5 µM in assay [2] is -13.1%.
Consider `O=C(O)c1ccc2c(c1)nc(NC1CC1)c1nc(Nc3ccc(F)c(Cl)c3)ncc12`, for which the IC50 in assay [1] (setting [5]) was above 10 µM; in assay [3] (Homo sapiens), 26.6 µM. For the same molecule, in assay [2], the inhibition at 0.5 µM amounted to 8.76%.
On to `O=C(O)c1ccc2c(c1)nc(NC1CC1)c1nc(Nc3ccccc3)ncc12` [drawing 1618], for which the IC50 in assay [1] (setting [4]) was above 10 µM; in assay [3] (Homo sapiens), 4.6 µM. In assay [2], the inhibition at 0.5 µM amounted to 46%.
In the case of `O=C(O)c1ccc2c(c1)nc(Nc1cncc(C3CC3)c1)c1ccncc12` [drawing 1619], the IC50 in assay [1] (setting [5]) is above 10 µM; in assay [3] (Homo sapiens) it was above 50 µM.
For `O=C(O)c1ccc2c(c1)nc(NC1CC1)c1nc(NNCCO)ncc12`, the IC50 is above 10 µM in assay [1] (setting [5]) and above 50 µM in assay [3] (Homo sapiens). Further, the inhibition at 0.5 µM in assay [2] was -37%.
Regarding `O=C(O)c1ccc2c(c1)nc(NC1CC1)c1nc(NCCN3CCOCC3)ncc12`, the values for the IC50 in assay [1] (setting [5]) and in assay [3] (Homo sapiens) were above 10 µM and 21 µM, respectively. The inhibition at 0.5 µM in assay [2] worked out at 41.2%.
Turning to `CC(C)Oc1ccc(Nc2ncc3c(n2)c(NC2CC2)nc2cc(C(=O)O)ccc23)cc1`, the IC50 was above 10 µM in assay [1] (setting [5]) and 18.9 µM in assay [3] (Homo sapiens). The inhibition at 0.5 µM in assay [2] amounted to 26.3%.
For `COC(=O)c1ccc2c(c1)nc(N)c1nc(SC)ncc12` the same measures were 4.77 µM, 1.14 µM and -13.2%.
For the molecule `C#Cc1cccc(Nc2nc3cc(C(=O)O)ccc3c3cnc(NC4CC4)nc23)c1`, the IC50 was determined as 7.3 µM in assay [1] (setting [4]) and 1.27 µM in assay [3] (Homo sapiens). Moreover, in assay [2], the inhibition at 0.5 µM was -38.6%.
Consider `Cc1ccccc1Nc1ncc2c(n1)c(NC1CC1)nc1cc(C(=O)O)ccc12`, for which the IC50 is above 10 µM in assay [1] (setting [5]), 0.994 µM in assay [2] and 18.6 µM in assay [3] (Homo sapiens). Moreover, the inhibition at 0.5 µM in assay [2] came out at 52.8%.
For `COc1ccccc1Nc1nc2cc(C(=O)O)ccc2c2cnccc12` the same measures were above 10 µM, 0.698 µM, 10.4 µM and 75.8%.
`Nc1ncc2c(n1)c(Nc1ccc(F)c(Cl)c1)nc1cc(C(=O)O)ccc12`: the inhibition at 0.5 µM in assay [2] was 38.8%. This molecule returned an IC50 in assay [3] (Homo sapiens) of 4.34 µM.
For `COCCNc1ncc2c(n1)c(Nc1ccccc1)nc1cc(C(=O)O)ccc12` the same measures were 19.8% and 5.8 µM.
In the case of `O=C(O)c1ccc2c(c1)nc(Nc1cccc(Oc3ccccc3)c1)c1ccncc12`, the IC50 in assay [1] (setting [5]) is above 10 µM; in assay [3] (Homo sapiens), above 30 µM. In assay [2], the inhibition at 0.5 µM came to 44.1%.
For the molecule `O=C(O)c1ccc2c(c1)nc(Nc1ccc(OC(F)(F)F)cc1)c1ccncc12`, the IC50 in assay [1] (setting [5]) is above 10 µM; in assay [2], 0.668 µM; in assay [3] (Homo sapiens) it was 4.7 µM. For the same molecule, the inhibition at 0.5 µM in assay [2] worked out at 68.3%.
For `CCOc1cccc(Nc2ncc3c(n2)c(NC2CC2)nc2cc(C(=O)O)ccc23)c1`, the values for the IC50 in assay [1] (setting [5]) and in assay [3] (Homo sapiens) were 3.77 µM and 5.17 µM, respectively. The inhibition at 0.5 µM in assay [2] came to 32.8%.
Turning to `COc1cc(Nc2nc3cc(C(=O)O)ccc3c3cnccc23)ccc1C`, the results for the IC50 in assay [1] (setting [5]), in assay [2] and in assay [3] (Homo sapiens) were above 10 µM, 0.744 µM and 10.7 µM, respectively. Besides, the inhibition at 0.5 µM in assay [2] is 75.8%.
Take `O=C(O)c1ccc2c(c1)nc(NC1CC1)c1nc(NCCc3ccccc3)ncc12`: the IC50 in assay [1] (setting [4]) is above 10 µM; in assay [3] (Homo sapiens) it was 0.826 µM. Further, the inhibition at 0.5 µM in assay [2] is -11.1%.
Take `O=C(O)c1ccc2c(c1)nc(Nc1ccccc1)c1nc(NCCCN3CCOCC3)ncc12`: the IC50 in assay [1] (setting [4]) is above 10 µM; in assay [3] (Homo sapiens), 2.18 µM. In assay [2], the inhibition at 0.5 µM is 33.7%.
For `COc1cccc(Nc2ncc3c(n2)c(NC2CC2)nc2cc(C(=O)O)ccc23)c1` [drawing 1720], in assay [2], the “PIM-1: % inh 500 nM” value came to 60.859% and the IC50 was determined as 0.97 µM. The molecule also registered an IC50 in assay [3] of 3.15 µM.
In the case of `O=C(O)c1ccc2c(c1)nc(Nc1ccccc1)c1nc(NCCCO)ncc12`, the inhibition at 0.5 µM in assay [2] was 49.3%. In assay [3] (Homo sapiens), this molecule showed an IC50 of 7.9 µM.
For `O=C(O)c1ccc2c(c1)nc(Nc1ccc(F)c(Cl)c1)c1nc(NCc3cccnc3)ncc12` the same measures were 19.6% and 1.5 µM.
Take `COCCNc1ncc2c(n1)c(Nc1ccc(F)c(Cl)c1)nc1cc(C(=O)O)ccc12`: the inhibition at 0.5 µM in assay [2] amounted to 22.9%. The same molecule had an IC50 in assay [3] (Homo sapiens) of 0.413 µM.
On to `CCCNc1ncc2c(n1)c(Nc1ccccc1)nc1cc(C(=O)O)ccc12`, for which the inhibition at 0.5 µM in assay [2] worked out at 29.9%. Moreover, in assay [3] (Homo sapiens), the IC50 was determined as 4.53 µM.
For `Nc1ncc2c(n1)c(Nc1cccc(Cl)c1)nc1cc(C(=O)O)ccc12` the same measures were 85.7% and 1.14 µM.
For `O=C(O)c1ccc2c(c1)nc(Nc1ccc(F)c(Cl)c1)c1nc(NCc3ccccn3)ncc12`, the inhibition at 0.5 µM in assay [2] came to 59.1%. This molecule came in with an IC50 in assay [3] (Homo sapiens) of 2.59 µM.
Take `COc1cccc(Nc2ncc3c(n2)c(NC2CC2)nc2cc(C(=O)O)ccc23)c1` [drawing 1717]: in assay [2], the “PIM-1: % inh 500 nM” value came to 5.494%. In addition, in assay [3], the IC50 turned out to be 54.6 µM.
As to `CN(C)c1ncc2c(n1)c(Nc1cccc(Cl)c1)nc1cc(C(=O)O)ccc12`, the IC50 was above 10 µM in assay [1] (setting [5]) and 5.83 µM in assay [3] (Homo sapiens).
As for `C#Cc1cccc(Nc2nc3cc(C(=O)O)ccc3c3cnc(NCCCN4CCOCC4)nc23)c1`, the inhibition at 0.5 µM in assay [2] is 41.6%. Moreover, the IC50 in assay [3] (Homo sapiens) worked out at 3.69 µM.

The record behind these values is patent US8168651B2, “Protein kinase modulators” (Cylene Pharmaceuticals, Inc., priority 2008, dated 2012).
